Assay results taken from patent US4636500A, “N-(phenoxyalkyl)imidazoles as selective inhibitors of the thromboxane synthetase enzyme and pharmaceutical compositions thereof” (Pfizer Inc., priority 1978, dated 1987).
Where a name gives a salt, the structure may show the parent alone.

Assays:
prostacyclin synthetase [1] = target: T1, prostacyclin synthetase (Sus scrofa, UniProt A0A5G2QT35); conditions: pig aorta microsomes; pre-incubation of the enzyme; literature; cited from earlier work
T1 construct: Pig aorta microsomes; from tissue; host or cells: pig aorta microsomes
T1 sequence (A0A5G2QT35 1-497): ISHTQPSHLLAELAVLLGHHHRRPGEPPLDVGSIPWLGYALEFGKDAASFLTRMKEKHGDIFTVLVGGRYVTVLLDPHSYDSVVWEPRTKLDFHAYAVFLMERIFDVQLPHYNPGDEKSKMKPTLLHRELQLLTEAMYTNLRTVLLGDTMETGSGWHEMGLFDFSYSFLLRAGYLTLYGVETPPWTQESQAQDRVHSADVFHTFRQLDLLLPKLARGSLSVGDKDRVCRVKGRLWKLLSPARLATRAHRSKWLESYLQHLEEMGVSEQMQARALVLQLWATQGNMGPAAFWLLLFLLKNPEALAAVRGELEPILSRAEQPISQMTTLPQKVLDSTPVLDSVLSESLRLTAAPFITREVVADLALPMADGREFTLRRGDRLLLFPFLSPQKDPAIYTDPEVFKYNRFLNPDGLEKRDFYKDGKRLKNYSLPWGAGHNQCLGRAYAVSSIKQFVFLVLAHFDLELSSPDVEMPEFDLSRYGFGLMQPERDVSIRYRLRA

thromboxane synthetase = target: T2, thromboxane synthetase (Homo sapiens, UniProt P24557); experiment: Thromboxane A2 (TxA2) synthetase inhibition; Indomethacin pretreated human platelet microsomes, rabbit aorta superfusion bioassay; format: biochemical; conditions: for IC50: human platelet microsomes, 5 min pre-incubation, read-out: Molar concentration causing 50% inhibition of (1) thromboxane synthetase; for Ratio of (3) to (1): prostacyclin synthetase / thromboxane synthetase 50% inhibition concentrations
T2 construct: human platelet microsomes; from tissue; host or cells: human blood platelets (indomethacin-pretreated), microsomes
T2 sequence (P24557 1-533): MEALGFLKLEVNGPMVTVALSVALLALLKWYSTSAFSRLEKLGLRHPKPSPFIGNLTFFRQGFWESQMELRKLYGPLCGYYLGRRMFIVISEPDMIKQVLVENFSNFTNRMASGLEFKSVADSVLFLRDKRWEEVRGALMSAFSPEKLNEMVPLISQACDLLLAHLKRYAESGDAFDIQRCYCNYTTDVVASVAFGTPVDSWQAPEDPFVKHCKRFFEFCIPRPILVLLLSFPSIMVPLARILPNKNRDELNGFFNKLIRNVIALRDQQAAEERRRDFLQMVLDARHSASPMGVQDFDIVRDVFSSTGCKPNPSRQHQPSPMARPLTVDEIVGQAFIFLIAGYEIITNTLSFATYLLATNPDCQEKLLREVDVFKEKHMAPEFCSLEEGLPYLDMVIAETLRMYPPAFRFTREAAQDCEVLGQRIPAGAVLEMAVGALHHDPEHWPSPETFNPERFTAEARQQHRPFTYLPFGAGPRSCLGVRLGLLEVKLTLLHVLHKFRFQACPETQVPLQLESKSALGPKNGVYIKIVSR
Description: Indomethacin pretreated human platelet microsomes (Science 1976, 193, 163) are incubated (2 min.: 0° C.) with PGH2 (produced as in 1) and aliquots of the reaction mixture superfused over two rabbit aorta spirals which are separated by a delay coil (2 min.). The latter is required to allow the selective decay of the more unstable thromboxane A2 (Proc. Nat. Acad. Sci. 1975, 72, 2994) thereby enabling the separate measurement of increased isometric tension due to the TxA2 formed and the PGH2 remaining. The test compound is pre-incubated with the enzyme for 5 minutes, and its ability to inhibit the thromboxane synthetase enzyme is measured as its reduction of the TxA2 component of the isometric tension.

prostacyclin synthetase [2] = target: T1, prostacyclin synthetase; experiment: Prostacyclin (PGI2) synthetase inhibition; pig aorta microsomes, rabbit aorta strip bioassay; format: biochemical; conditions: 5 min pre-incubation, read-out: Molar concentration causing 50% inhibition of (3) prostacyclin synthetase
Description: The effect of the compounds of the formula (I) on the thromboxane synthetase enzyme, and the prostacyclin synthetase and cyclo-oxygenase enzymes has been measured by the following in vitro enzyme assays:
Pig aorta microsomes (Nature, 1976, 263, 663) are incubated (30 sec.; 22° C.) with PGH2 produced as in 1) and aliquots bio-assayed as in 1. […] The test compound is then pre-incubated with the enzyme for 5 minutes, and its ability to prevent the decrease in tension is measured.
The results of these tests are shown in the following Table, which gives the molar concentration of each compound which caused a 50% change in the effect of the relevant enzyme on isometric tension, i.e. caused a 50% inhibition of the action of that enzyme.

cyclo-oxygenase = target: T3, cyclo-oxygenase (Ovis aries, UniProt P05979); experiment: Cyclo-oxygenase inhibition; ram seminal vesicle microsomes, rabbit aorta strip bioassay; format: biochemical; conditions: 5 min pre-incubation, read-out: Molar concentration causing 50% inhibition of (2) cyclo-oxygenase
T3 construct: Ram seminal vesicle microsomes; from tissue; host or cells: ram seminal vesicle microsomes
T3 sequence (P05979 25-600): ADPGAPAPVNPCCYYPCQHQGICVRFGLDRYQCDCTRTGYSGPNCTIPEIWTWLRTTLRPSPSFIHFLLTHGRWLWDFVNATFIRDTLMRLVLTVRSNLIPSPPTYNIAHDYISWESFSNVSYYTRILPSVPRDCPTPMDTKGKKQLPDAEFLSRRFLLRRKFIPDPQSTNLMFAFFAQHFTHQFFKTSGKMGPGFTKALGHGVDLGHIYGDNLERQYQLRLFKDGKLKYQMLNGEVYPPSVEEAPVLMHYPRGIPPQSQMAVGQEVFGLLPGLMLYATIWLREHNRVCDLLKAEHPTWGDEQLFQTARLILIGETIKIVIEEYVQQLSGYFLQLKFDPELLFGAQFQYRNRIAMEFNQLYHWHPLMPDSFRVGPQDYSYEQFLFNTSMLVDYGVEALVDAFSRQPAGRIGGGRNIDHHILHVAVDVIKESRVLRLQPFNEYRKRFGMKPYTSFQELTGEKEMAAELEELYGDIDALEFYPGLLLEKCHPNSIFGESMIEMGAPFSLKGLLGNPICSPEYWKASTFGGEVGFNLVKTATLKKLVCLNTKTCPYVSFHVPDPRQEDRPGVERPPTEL
Description: Ram seminal vesicle microsomes(Biochemistry, 1971, 10, 2372) are incubated with arachidonic acid (100 μM: 1 min.: 22°) to produce PGH2 and aliquots of the reaction mixture injected into a stream of Krebs-bicarbonate at 37° C. (containing a mixture of antagonists (Nature, […], 218, 1135) and indomethacin (Brit. J. Pharmacol., 1972, 45, 451) which is superfusing a spirally-cut rabbit aorta strip (Nature, 1969, 223, 29). The ability of a compound to inhibit the enzyme is measured by comparing the increases in isometric tension produced by PGH2 in the absence of the test compound, and following pre-incubation of the enzyme with the test compound for 5 minutes.

[3] = system: human blood platelet aggregation; experiment: in vitro inhibition of human blood platelet aggregation; format: cell-based; conditions: human platelets, qualitative
Description: In addition to the above as in vitro assay for measuring the inhibition of human blood platelet aggregation has been described and this may be predictive of anti-thrombotic efficacy clinically (Lancet (ii), 1974, 1223; J. Exp. Med., 1967, 126, 171).

cyclo-oxygenase enzyme = conditions: background statement; cited from earlier work
rabbits = conditions: intravenous arachidonic acid, literature; cited from earlier work
[4] = system: human blood platelet aggregation; conditions: human blood platelets; literature; cited from earlier work
aggregation of platelets = conditions: rat abdominal aorta, in vivo; literature; cited from earlier work

Row | IC50 (thromboxane synthetase) | Ratio of (3) to (1) (thromboxane synthetase) | IC50 (prostacyclin synthetase [2]) | SMILES | also measured
1 |  |  |  | CCCCCC(/C=C/C=C\C/C=C\C/C=C\CCCC(=O)O)OO (stereo not shown) [15-hydroperoxy-arachidonic acid] | prevention of the decrease in PGH2-induced tension (PGI2 synthetase inhibition) (prostacyclin synthetase [1]): prevented completely
2 | 0.022 µM | > 4,500 | > 100 µM | NC(=O)c1ccc(OCCn2ccnc2)cc1 [Example 1, 1-[2-(4-Carbamoylphenoxy)ethyl]imidazole] | IC50 (cyclo-oxygenase): > 100 µM
3 | 10 µM |  |  | NC(=O)c1ccccc1OCCn1ccnc1 [Example 2] | 
4 | 1 µM |  |  | NC(=O)Cc1ccc(OCCn2ccnc2)cc1 [Example 3] | 
5 | 0.04 µM | > 2,500 | > 100 µM | CCOC(=O)c1ccccc1OCCn1ccnc1 [Example 4, 1-[2-(2-ethoxycarbonyl-phenoxy)ethyl]imidazole] | 
6 | 0.046 µM | 2,200 | 100 µM | CCOC(=O)Cc1cccc(OCCn2ccnc2)c1 [Example 7] | 
7 | 0.034 µM | > 2,900 | > 100 µM | CCOC(=O)Cc1ccc(OCCn2ccnc2)cc1 [Example 8] | 
8 | 34 µM |  |  | O=C(O)c1ccccc1OCCn1ccnc1 [Example 17, 1-[2-(2-Carboxyphenoxy)ethyl]imidazole Hydrochloride] | 
9 | 0.0042 µM |  |  | O=C(O)COc1ccc(OCCn2ccnc2)cc1 [Example 18, 4-[2-(1-Imidazolyl)ethoxy]phenoxyacetic acid Hydrochloride] | 
10 | 0.58 µM |  |  | O=C(O)Cc1ccccc1OCCn1ccnc1 [Example 19, 2-[2-(1-Imidazolyl)ethoxy]phenylacetic acid Hydrochloride] | 
11 | 0.012 µM |  |  | O=C(O)c1cccc(OCCn2ccnc2)c1 [Example 21, 1-[2-(3-Carboxyphenoxy)ethyl]imidazole Hydrochloride] | 
12 | 0.0049 µM |  |  | c1cn(CCOc2ccc(-c3nnn[nH]3)cc2)cn1 [Example 22, 1-[2-(4-Tetrazol-5-ylphenoxy)ethyl]imidazole] | 
13 | 0.016 µM |  |  | NC(=O)COc1ccc(OCCn2ccnc2)cc1 [Example 23, 4-[2-(1-Imidazolyl)ethoxy]phenoxyacetamide] | 
14 | 0.005 µM | > 20,000 | > 100 µM | CNC(=O)c1ccc(OCCn2ccnc2)cc1 [Example 24, 1-[2-(4-N-Methylcarbamoylphenoxy)ethyl]imidazole] | IC50 (cyclo-oxygenase): > 100 µM
15 | 0.0056 µM | > 18,000 | > 100 µM | CN(C)C(=O)c1ccc(OCCn2ccnc2)cc1 [Example 25, 1-[2-(4-N,N-Dimethylcarbamoylphenoxy)ethyl]imidazole] | IC50 (cyclo-oxygenase): > 100 µM
16 | 10 µM |  |  | O=C(c1ccc(OCCn2ccnc2)cc1)N1CCOCC1 [Example 26, 1-[4-(2-Imidazol-1-yl)ethoxybenzoyl]morpholine] | 
17 | 6.6 µM |  |  | NC(=O)Cc1ccccc1OCCn1ccnc1 [Example 39, 1-[2-(2-Carbamoylmethylphenoxy)ethyl]imidazole] | 
18 |  |  |  | CC(=O)Oc1ccccc1C(=O)O [aspirin] | inhibition of the cyclo-oxygenase enzyme (cyclo-oxygenase enzyme): inhibit the cyclo-oxygenase enzyme; protect the rabbit from the lethal effect of the injection (rabbits): protect the rabbit from the lethal effect of the injection; inhibitory activity in vitro against a variety of aggregating agents [4]: show inhibitory activity in vitro against a variety of aggregating agents
19 |  |  |  | O=C1C(CC[S+]([O-])c2ccccc2)C(=O)N(c2ccccc2)N1c1ccccc1 (stereo not shown) [sulphinpyrazone] | protect the rabbit from the lethal effect of the injection (rabbits): protect the rabbit from the lethal effect of the injection; inhibitory activity in vitro against a variety of aggregating agents [4]: show inhibitory activity in vitro against a variety of aggregating agents; prevent the aggregation of platelets in an extra corporeal loop (aggregation of platelets): prevent the aggregation of platelets in an extra corporeal loop of the abdominal aorta of rats in vivo

Row | SMILES | IC50 (thromboxane synthetase) | Ratio of (3) to (1) (thromboxane synthetase) | IC50 (prostacyclin synthetase [2]) | also measured
20 | O=C(O)c1ccc(OCCn2ccnc2)cc1 [Example 16, 1-[2-(4-Carboxyphenoxy)ethyl]imidazole] |  |  | > 100 µM | preventing human blood platelet aggregation [3]: effective in preventing human blood platelet aggregation
